Source: patent publication US7169770B2, “Method of enhancing reproductive performance in sows” (priority 2001, dated 2007)
Where two headings read alike, the source gives them in different places.

Columns and labels:
sows (PIC Line C22) = test: Sow feeding trial: L-carnitine and/or chromium tris-picolinate top dress over two parities, reproductive performance; type: in vivo; conditions: for First service FR %: first service farrowing rate; for No. of sows Weaned parity 1: Second parity section; for first service farrowing rate: parity 2; for No. of sows Farrowed in parity 1 / No. of sows Farrowed in parity 2 / Number of sows removed from experiment: sow longevity table
Procedure: This experiment was conducted on a commercial 1,500 sow farrow-to-wean operation in central Kansas and used 599 sows (PIC Line C22). Experimental treatments were arranged in a 2×2 factorial with main effects of added L-carnitine (0 or 50 ppm) and chromium tris-picolinate (0 or 200 ppb). Sows were started on test on the first day of breeding. Each sow remained on the same treatment through gestation, lactation, and through a second gestation period (2 parities). During gestation, all sows were fed a grain sorghum-soybean meal-based diet formulated to contain 0.65% lysine, 0.83% Ca, and 0.76% P. In lactation, all sows were fed a grain sorghum-soybean meal based diet formulated to contain 1.10% lysine, 0.90% Ca, and 0.80% P (Table 3). Dietary treatments were provided via a corn-based top dress fed at 30 g/d. The top dress was formulated to provide 90 mg/d and 250 mg/d carnitine in gestation and lactation, respectively. Chromium tris-picolinate was provided at 360 mcg/d and 1,000 mcg/d during gestation and lactation, respectively. These inclusions were calculated to provide 50 mg/kg carnitine (CarniFeed, Lonza Inc., NJ) and 200 mcg/kg chromium (Chromapure, Lonza Inc., NJ) when sows were fed 4 lb/d of the gestation diet and 11 lb/d of the lactation diet. The top dress was added to the top of the feed box between meals in order to be consumed with the rest of the diet. The top dress was color-coded (1% dyed corncobs) by treatment to assure proper distribution of experimental treatments.
At farrowing, the number of pigs born alive, as stillborn, as mummies, and total born were recorded. Total born was the sum of the number of pigs born alive, stillborn, and mummies. Sows were rebred after weaning (15 d lactation) and remained on the same treatment until farrowing a second litter. […] Sows that were bred at the start of the study, but were later found open, were removed from the trial. Procedures and data collection were identical for the second gestation and lactation period. However, dietary treatments were not administered during the second lactation period.
Calculations were made to determine the total number of pigs born, born alive, as stillborns, or as mummies per sow for the two parities. Total number of pigs were calculated using only sows that initially farrowed, then completed the second parity, as well as calculated from all the sows that were actually started on test.
Data were analyzed using the MIXED procedure of SAS. Sow was the experimental unit for the analysis with parity, previous lactation length, and/or week of farrowing as a covariate (Table IV) for total born, number of pigs born alive, mummies, and stillborn. A chi-square statistic was calculated to determine differences among treatments when analyzing percent in estrus and farrowing rate.

sows [1] = conditions: cited from earlier work
sows [2] = conditions: 200 μg/kg of chromium fed to sows; Lindemann et al. (1995b); cited from earlier work
[3] = all sows started on test for two parities
[4] = sows that completed parity one, two parities
[5] = 200 μg/kg of chromium, Lindemann et al. (1995b), Hagen et al. (2000)
[6] = L-carnitine added to gestating sow diets, Musser et al. (1999b)

Row | Molecule | % estrus by d 7 (sows (PIC Line C22); First parity) | % estrus by d 18 (sows (PIC Line C22); First parity) | No. of pigs Born alive (sows (PIC Line C22); First parity) | No. of pigs Mummies (sows (PIC Line C22); First parity) | No. of pigs Stiliborn (sows (PIC Line C22); First parity) | No. of pigs Total born (sows (PIC Line C22); First parity) | No. of sows Farrowed (sows (PIC Line C22); First parity) | WEI d (wean to estrus interval) (sows (PIC Line C22); First parity) | First service FR % (sows (PIC Line C22); First parity) | % estrus by d 7 (sows (PIC Line C22); Second parity) | % estrus by d 18 (sows (PIC Line C22); Second parity) | No. of pigs Born alive (sows (PIC Line C22); Second parity) | No. of pigs Mummies (sows (PIC Line C22); Second parity) | No. of pigs Stiliborn (sows (PIC Line C22); Second parity) | No. of pigs Total born (sows (PIC Line C22); Second parity) | No. of sows Bred by d 18 (sows (PIC Line C22); Second parity) | No. of sows Farrowed (sows (PIC Line C22); Second parity) | Percentage of weaned parity 1 sows that farrowed parity 2 (sows (PIC Line C22); Second parity) | WEI (wean to estrus interval) (sows (PIC Line C22); Second parity) | No. of sows Weaned parity 1 (sows (PIC Line C22)) | other results
1 | chromium tris-picolinate | 86.7% | 91.7% | 10.2 | 0.39 | 1.26 | 11.5 | 138 | 4.7 days | 95.5% | 81.0% | 82.9% | 9.5 | 0.40 | 1.09 | 11.0 | 127 | 102 | 74.3% | 4.6 | 138 | First service FR % (sows (PIC Line C22); Second parity): 79.7%; Total pigs per sow, Born alive (sows (PIC Line C22); [3]): 16.2; Total pigs per sow, Mummies (sows (PIC Line C22); [3]): 0.7; Total pigs per sow, Stillborn (sows (PIC Line C22); [3]): 2.0; Total pigs per sow, Total born (sows (PIC Line C22); [3]): 18.8; farrowing rate (sows (PIC Line C22); our study, result in words): increases; number born alive (sows (PIC Line C22); our study, result in words): no improvements; number of stillborn pigs per litter (sows (PIC Line C22); our study, result in words): tendencies to increase; first service farrowing rate (sows (PIC Line C22); result in words): did not influence; No. of sows Farrowed in parity 1 (sows (PIC Line C22)): 138; No. of sows Farrowed in parity 2 (sows (PIC Line C22)): 102; Number of sows removed from experiment (sows (PIC Line C22)): 45; Total pigs per sow, Born alive (sows (PIC Line C22); [4]): 16.8; Total pigs per sow, Mummies (sows (PIC Line C22); [4]): 0.6; Total pigs per sow, Stillborn (sows (PIC Line C22); [4]): 2.1; Total pigs per sow, Total born (sows (PIC Line C22); [4]): 19.5; farrowing rate (sows [1]; [5]): no effects; number of pigs born alive (sows [1]; [5]): increases; plasma insulin and insulin to glucose ratio (sows [2]): decreased
2 | C[N+](C)(C)C[C@H](O)CC(=O)[O-] [Carnitine, L-carnitine] | 88.6% | 91.5% | 9.8 | 0.26 | 0.98 | 11.4 | 140 | 4.6 days | 91.9% | 76.9% | 80.8% | 9.9 | 0.33 | 1.02 | 11.2 | 128 | 104 | 73.9% | 4.7 | 140 | First service FR % (sows (PIC Line C22); Second parity): 81.3%; Total pigs per sow, Born alive (sows (PIC Line C22); [3]): 16.3; Total pigs per sow, Mummies (sows (PIC Line C22); [3]): 0.5; Total pigs per sow, Stillborn (sows (PIC Line C22); [3]): 1.6; Total pigs per sow, Total born (sows (PIC Line C22); [3]): 18.4; first service farrowing rate (sows (PIC Line C22); result in words): did not influence; No. of sows Farrowed in parity 1 (sows (PIC Line C22)): 140; No. of sows Farrowed in parity 2 (sows (PIC Line C22)): 104; Number of sows removed from experiment (sows (PIC Line C22)): 46; Total pigs per sow, Born alive (sows (PIC Line C22); [4]): 17.6; Total pigs per sow, Mummies (sows (PIC Line C22); [4]): 0.5; Total pigs per sow, Stillborn (sows (PIC Line C22); [4]): 1.7; Total pigs per sow, Total born (sows (PIC Line C22); [4]): 19.8; farrowing rate, total number of pigs born or born alive (sows [1]; 50 mg/kg of carnitine during lactation, three experiments, Musser et al. (1999a)): minimal differences; farrowing rate (sows [1]; [6]): no effect; number of pigs born alive in the subsequent parity (sows [1]; [6]): increase; total number of pigs born and born alive (sows [1]; L-carnitine fed during gestation, Musser et al. (1999a)): increases
